Assay [1] addresses Peroxisome proliferator-activated receptor gamma/Nuclear receptor coactivator 2 (Homo sapiens, UniProt P37231). Type of assay: functional.
For assay [2], the target named is Peroxisome proliferator-activated receptor gamma/Nuclear receptor coactivator 1 (Homo sapiens, UniProt P37231). Type of assay: functional.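 Also: agonist potency as compounds enhance coactivator SRC-1 recruitment to PPARgamma.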
The target in assay [3] is Peroxisome proliferator-activated receptor gamma/Nuclear receptor coactivator 3 (Homo sapiens, UniProt P37231). Type of assay: functional.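 Also: agonist potency for raising coactivator recruitment to the receptor.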
In another assay the target is T1, Bcl-2-like protein 10 (Homo sapiens, UniProt Q9HD36).
T1 sequence (Q9HD36 whole entry): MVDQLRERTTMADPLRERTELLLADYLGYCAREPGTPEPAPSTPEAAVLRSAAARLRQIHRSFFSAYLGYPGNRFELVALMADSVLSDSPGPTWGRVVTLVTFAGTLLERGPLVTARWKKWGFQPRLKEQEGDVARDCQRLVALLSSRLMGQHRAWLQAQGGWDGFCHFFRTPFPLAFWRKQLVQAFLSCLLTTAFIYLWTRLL
In words: displacers of TR3 peptide from Bcl-B, primary screen, selectivity assay for Bfl-1 inhibitor project, biochemical, fluorescence polarization, FITC-TR3 peptide (AID 748).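 Also: fluorescence polarization from a fluorescein-labelled TR3 peptide binding purified Bcl-B.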

For assay [4], the target named is T2, Estrogen receptor beta (Homo sapiens, UniProt Q92731).
The target of assay [5] is T2, Estrogen receptor beta. In words: ERβ–SRC-3 coactivator interaction inhibitors, confirmation, orthogonal assay, biochemical, ELISA, streptavidin-HRP readout (AID 1060).
The target in assay [6] is T3, Carboxy-terminal domain RNA polymerase II polypeptide A small phosphatase 1 (Homo sapiens, UniProt Q9GZU7).
T3 sequence (Q9GZU7 whole entry): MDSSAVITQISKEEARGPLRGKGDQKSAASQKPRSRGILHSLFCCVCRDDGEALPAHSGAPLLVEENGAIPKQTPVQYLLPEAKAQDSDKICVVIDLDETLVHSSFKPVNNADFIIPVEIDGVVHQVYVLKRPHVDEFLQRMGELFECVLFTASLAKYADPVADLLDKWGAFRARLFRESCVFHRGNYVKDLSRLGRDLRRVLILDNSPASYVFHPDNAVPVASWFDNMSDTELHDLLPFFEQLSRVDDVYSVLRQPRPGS
Briefly: inhibitors of CTDSP1, concentration-response testing, biochemical assay, absorbance-based, actives from ultra-high-throughput screening (AID 540297). The format is functional.

The nature of assay [7]: cytotoxicity in KRAS-transformed pancreatic duct cells, primary screen, cell-based, fluorescence, HTS (AID 431).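 Also: cell line used: HPDE-C7K.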 The format is functional. The note with it: Homo sapiens.
A further assay deals with H9c2. In words: cells. The format is functional, cell-based. The note with it: Rattus norvegicus, H9c2, Myocardium.
Assay [8] is described as follows: A Cell Based Secondary Assay To Explore Cytotoxicity of Compounds that Sensitize Mycobacterium Tuberculosis to Beta-Lactam Antibiotics. Type of assay: functional.
A short description of assay [9]: growth suppression of beta-catenin-knockout colon cells, dose response, cell-based, HCT116, human colon tumor (AID 1045).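 Also: HCT116 colon tumor cells with beta catenin knocked out; cells exposed to compound for 60 hours.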 Type of assay: functional.
Assay [10] is described as follows: growth suppression of PTEN-null colon cells, dose response, cell-based, HCT116 PTEN knockout (AID 1047).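 Also: HCT116 colon tumor cells with PTEN knocked out; cells exposed to compound for 60 hours before readout; potency for loss of cell viability measured by luminescence.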 Type of assay: functional.
Assay [11] can be described thus: cytotoxicity in HPDE-C7 cells, cell-based, fluorescence, HTS (AID 430). Type of assay: functional. Conditions: Homo sapiens.
In assay [12] the target is Transitional endoplasmic reticulum ATPase (Homo sapiens, UniProt P55072). In words: Luminescence dose response biochemical high throughput screening assay for inhibitors of the p97 ATPase: synthesized compounds. [Related pubchem assays: 1481, 1517 ].
Assay [13] has as its target Transitional endoplasmic reticulum ATPase (Homo sapiens, UniProt P55072, C522A). Briefly: Luminescence counterscreen assay for p97 inhibitors: dose response biochemical high throughput screening assay to identify inhibitors of the C522A mutant p97 ATPase: synthesized compounds. [Related pubchem assays: 1481, 1517, 1551 ].
Assay [14] addresses Neuropeptide Y receptor type 2 (Homo sapiens, UniProt P49146). The format is functional, cell-based.
Assay [15] has as its target Neuropeptide Y receptor type 1 (Homo sapiens, UniProt P25929). Type of assay: functional.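 Also: HEK293 cells with a CNG channel challenged with NPY then isoproterenol; potency as antagonist that reverses NPY suppression of cAMP signal.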
In assay [16] the test system is Streptococcus sp. 'group A'. Briefly: growth inhibition of control SK(-) GAS strain, dose response, counter-screen for streptokinase expression inhibitor project, luminescence, kanamycin, BacTiterGlo, confirmation (AID 1900). Type of assay: functional, organism-based.
For a further assay, the system named is Streptococcus. Briefly: Group A Streptococcus viability loss, dose response, counter-screen for streptokinase expression inhibitor project, luminescence, BacTiterGlo (AID 1915).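 Also: potency for reduction of bacterial viability or growth.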 Type of assay: functional, organism-based.
A further assay concerns the target Ion channel NompC (Danio rerio, UniProt Q7T1G6). In words: Fluorescence counterscreen assay for TRPML3 agonists: dose response cell-based high-throughput screening assay to identify agonists of the transient receptor potential channel N1 (TRPN1). [Related pubchem assays: 1526, 1424, 1448 ]. The format is functional.
The next assay deals with Mucolipin-3 (Homo sapiens, UniProt Q8TDD5). In words: Dose response cell-based high-throughput screening assay for agonists of the transient receptor potential channel ML3 (TRPML3). [Related pubchem assays: 1526, 1424, 1448 ]. The format is functional.
In assay [17] the target is Lysosomal acid glucosylceramidase (Homo sapiens, UniProt P04062). Briefly: Dose response cell-based high throughput screening assay to identify enhancers of beta-glucosidase activity. [Related pubchem assays: 784 ]. The format is functional.
The target in assay [18] is Glyceraldehyde-3-phosphate dehydrogenase (Homo sapiens, UniProt P04406).
For the next assay, the system named is HT-1080. Briefly: cytotoxicity in HT1080 fibrosarcoma cells, cell-based, fluorescence readout (AID 620). The format is functional. Conditions: Homo sapiens.
The target in assay [19] is T4, Oxysterols receptor LXR-beta (Homo sapiens, UniProt P55055).
T4 sequence (P55055 whole entry): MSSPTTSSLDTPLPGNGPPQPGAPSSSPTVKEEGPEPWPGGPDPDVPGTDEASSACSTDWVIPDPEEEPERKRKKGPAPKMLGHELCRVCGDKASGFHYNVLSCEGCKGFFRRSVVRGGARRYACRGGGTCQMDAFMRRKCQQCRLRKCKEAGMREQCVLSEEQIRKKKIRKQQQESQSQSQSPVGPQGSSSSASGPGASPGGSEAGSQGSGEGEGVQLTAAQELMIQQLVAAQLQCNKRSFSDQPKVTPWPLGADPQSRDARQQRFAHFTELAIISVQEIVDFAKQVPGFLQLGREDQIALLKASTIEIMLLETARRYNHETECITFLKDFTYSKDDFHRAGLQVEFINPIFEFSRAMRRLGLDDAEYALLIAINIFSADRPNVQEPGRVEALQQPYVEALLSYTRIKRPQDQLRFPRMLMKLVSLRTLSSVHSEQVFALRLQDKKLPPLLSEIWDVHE
In words: LXR agonists, Gal4 luciferase reporter, dose response, counter-screen for ssDAF-12 agonist project, cell-based, luminescence, HEK293, S. stercoralis campaign (AID 720737). The format is functional. The note with it: read-out: IC50 (the source's name).

Assay [20] has as its target Protein-tyrosine kinase 2-beta (Homo sapiens, UniProt Q14289).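 Also: potency of inhibitors of PYK2 kinase phosphorylation of poly-GT substrate.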
Assay [21] in a line: Luminescence-based cell-based high throughput dose response assay to identify activators of the DAF-12 from the parasite S. stercoralis (ssDAF-12). Type of assay: functional.
For assay [22], the target named is Luciferin 4-monooxygenase (Photinus pyralis, UniProt P08659). Briefly: Counter Screen for Luciferase-based Assay Positives. [Related pubchem assays: 620, 618, 411 ].
Assay [23] concerns the target T5, Aryl hydrocarbon receptor (Homo sapiens, UniProt P35869).
T5 sequence (P35869 whole entry): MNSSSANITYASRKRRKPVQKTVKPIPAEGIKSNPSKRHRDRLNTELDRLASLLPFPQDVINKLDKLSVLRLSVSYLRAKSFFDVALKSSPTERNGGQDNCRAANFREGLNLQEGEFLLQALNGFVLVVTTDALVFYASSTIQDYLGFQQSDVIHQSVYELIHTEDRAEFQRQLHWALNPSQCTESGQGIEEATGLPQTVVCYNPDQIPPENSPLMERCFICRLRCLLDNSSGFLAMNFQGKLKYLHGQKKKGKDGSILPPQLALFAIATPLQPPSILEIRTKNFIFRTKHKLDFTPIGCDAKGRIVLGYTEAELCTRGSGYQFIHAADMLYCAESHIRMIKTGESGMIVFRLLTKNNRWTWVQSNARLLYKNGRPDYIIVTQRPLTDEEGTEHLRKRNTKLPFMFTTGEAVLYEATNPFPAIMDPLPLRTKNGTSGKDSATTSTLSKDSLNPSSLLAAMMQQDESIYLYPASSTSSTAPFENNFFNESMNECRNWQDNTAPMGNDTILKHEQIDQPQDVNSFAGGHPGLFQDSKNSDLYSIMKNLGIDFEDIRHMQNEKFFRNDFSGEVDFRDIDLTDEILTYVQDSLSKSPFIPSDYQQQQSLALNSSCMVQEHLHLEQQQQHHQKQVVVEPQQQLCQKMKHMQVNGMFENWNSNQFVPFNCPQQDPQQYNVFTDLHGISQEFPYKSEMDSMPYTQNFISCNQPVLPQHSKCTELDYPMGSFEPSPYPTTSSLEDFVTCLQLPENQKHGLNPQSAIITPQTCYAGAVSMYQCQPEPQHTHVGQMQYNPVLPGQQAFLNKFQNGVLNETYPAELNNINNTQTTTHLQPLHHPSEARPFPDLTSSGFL
Briefly: Luminescence-based cell-based high throughput dose response assay for activators of the Aryl Hydrocarbon Receptor (AHR). [Related pubchem assays: 2796 (Primary screen (AHR activators in singlicate)), 2845 (Confirmation screen (AHR activators in triplicate)), 434939 (Counterscreen (PXR activators in triplicate)), 2804 (Summary (AHR activators))]. The format is ADME.

Assay [24] concerns the target T6, Mannose-6-phosphate isomerase (Homo sapiens, UniProt P34949).
T6 sequence (P34949 whole entry): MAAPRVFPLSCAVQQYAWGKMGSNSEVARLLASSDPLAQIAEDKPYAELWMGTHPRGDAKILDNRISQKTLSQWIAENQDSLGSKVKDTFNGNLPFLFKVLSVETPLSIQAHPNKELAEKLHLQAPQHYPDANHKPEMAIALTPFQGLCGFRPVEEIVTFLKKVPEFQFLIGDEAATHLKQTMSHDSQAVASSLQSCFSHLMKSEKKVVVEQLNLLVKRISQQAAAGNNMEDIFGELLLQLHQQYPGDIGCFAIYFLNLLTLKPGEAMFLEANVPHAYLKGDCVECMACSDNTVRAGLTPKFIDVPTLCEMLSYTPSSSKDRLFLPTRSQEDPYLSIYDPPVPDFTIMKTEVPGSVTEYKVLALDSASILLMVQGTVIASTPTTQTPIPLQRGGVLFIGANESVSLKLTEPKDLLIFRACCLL
Briefly: inhibitors of human PMI, primary screen, biochemical, fluorescence intensity, coupled assay (AID 1209).

Molecules are shown by their SMILES. Active and inactive are the calls of the source.

Sequence of Lysosomal acid glucosylceramidase (P04062 whole entry): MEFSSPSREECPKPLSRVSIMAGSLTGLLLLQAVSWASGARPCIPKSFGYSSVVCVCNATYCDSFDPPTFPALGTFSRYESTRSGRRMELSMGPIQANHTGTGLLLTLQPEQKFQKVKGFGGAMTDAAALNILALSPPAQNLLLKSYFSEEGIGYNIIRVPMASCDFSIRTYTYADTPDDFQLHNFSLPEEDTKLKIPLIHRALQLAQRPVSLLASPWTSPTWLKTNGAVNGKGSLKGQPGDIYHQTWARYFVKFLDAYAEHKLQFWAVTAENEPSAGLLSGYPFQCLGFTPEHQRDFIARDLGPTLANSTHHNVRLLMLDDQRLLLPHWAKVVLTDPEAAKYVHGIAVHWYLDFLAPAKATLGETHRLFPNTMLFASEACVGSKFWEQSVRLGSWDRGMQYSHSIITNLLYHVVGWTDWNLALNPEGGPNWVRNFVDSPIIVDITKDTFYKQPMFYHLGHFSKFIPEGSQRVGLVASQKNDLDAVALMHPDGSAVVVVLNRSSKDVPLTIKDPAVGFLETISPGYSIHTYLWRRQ
Sequence of Neuropeptide Y receptor type 2 (P49146 whole entry): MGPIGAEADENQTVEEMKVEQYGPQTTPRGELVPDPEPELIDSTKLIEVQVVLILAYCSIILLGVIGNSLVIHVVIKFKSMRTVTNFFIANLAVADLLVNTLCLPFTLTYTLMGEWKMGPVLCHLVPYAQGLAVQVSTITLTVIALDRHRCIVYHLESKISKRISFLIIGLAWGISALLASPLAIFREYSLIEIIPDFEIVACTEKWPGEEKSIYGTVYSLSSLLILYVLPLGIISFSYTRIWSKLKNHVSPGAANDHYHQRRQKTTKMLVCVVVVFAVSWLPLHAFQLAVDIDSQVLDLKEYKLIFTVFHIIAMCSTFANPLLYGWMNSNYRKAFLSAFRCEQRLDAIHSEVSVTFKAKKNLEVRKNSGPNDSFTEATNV
T2 sequence (Q92731 whole entry): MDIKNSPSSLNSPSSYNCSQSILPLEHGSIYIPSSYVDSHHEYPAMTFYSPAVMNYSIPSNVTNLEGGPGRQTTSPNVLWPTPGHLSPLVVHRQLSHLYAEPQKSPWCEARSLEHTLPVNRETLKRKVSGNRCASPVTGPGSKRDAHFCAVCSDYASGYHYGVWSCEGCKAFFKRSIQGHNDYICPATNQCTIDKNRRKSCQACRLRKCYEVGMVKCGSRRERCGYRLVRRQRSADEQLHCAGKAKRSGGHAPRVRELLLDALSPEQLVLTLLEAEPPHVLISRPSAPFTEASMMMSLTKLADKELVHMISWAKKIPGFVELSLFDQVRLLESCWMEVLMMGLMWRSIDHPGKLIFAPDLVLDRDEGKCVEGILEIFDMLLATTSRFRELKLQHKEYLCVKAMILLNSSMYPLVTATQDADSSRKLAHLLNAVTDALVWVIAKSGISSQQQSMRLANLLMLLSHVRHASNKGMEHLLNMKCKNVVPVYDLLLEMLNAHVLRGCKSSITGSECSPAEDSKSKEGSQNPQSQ
Sequence of Transitional endoplasmic reticulum ATPase (Homo sapiens, UniProt P55072, C522A) (P55072 2-806 C522A limits assumed): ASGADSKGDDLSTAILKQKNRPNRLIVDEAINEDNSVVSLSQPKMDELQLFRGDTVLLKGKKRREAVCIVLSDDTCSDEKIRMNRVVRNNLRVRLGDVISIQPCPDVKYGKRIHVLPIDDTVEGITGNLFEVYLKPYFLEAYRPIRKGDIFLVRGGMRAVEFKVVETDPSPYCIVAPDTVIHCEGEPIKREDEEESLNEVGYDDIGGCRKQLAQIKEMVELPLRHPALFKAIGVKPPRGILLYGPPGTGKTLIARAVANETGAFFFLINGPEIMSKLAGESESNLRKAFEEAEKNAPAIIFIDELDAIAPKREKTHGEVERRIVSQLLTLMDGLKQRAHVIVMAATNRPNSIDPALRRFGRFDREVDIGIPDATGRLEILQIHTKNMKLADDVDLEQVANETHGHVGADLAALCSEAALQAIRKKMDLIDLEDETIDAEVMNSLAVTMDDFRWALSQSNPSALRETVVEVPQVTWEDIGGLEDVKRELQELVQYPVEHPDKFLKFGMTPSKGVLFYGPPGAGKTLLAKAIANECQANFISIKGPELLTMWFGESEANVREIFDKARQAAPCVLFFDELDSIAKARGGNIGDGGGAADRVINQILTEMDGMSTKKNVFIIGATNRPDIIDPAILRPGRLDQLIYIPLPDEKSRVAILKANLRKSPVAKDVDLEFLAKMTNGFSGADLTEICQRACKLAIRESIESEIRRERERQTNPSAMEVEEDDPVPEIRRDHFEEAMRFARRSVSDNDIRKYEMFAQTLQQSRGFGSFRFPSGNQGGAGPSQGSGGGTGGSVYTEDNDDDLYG
Sequence of Transitional endoplasmic reticulum ATPase (Homo sapiens, UniProt P55072) (P55072 whole entry): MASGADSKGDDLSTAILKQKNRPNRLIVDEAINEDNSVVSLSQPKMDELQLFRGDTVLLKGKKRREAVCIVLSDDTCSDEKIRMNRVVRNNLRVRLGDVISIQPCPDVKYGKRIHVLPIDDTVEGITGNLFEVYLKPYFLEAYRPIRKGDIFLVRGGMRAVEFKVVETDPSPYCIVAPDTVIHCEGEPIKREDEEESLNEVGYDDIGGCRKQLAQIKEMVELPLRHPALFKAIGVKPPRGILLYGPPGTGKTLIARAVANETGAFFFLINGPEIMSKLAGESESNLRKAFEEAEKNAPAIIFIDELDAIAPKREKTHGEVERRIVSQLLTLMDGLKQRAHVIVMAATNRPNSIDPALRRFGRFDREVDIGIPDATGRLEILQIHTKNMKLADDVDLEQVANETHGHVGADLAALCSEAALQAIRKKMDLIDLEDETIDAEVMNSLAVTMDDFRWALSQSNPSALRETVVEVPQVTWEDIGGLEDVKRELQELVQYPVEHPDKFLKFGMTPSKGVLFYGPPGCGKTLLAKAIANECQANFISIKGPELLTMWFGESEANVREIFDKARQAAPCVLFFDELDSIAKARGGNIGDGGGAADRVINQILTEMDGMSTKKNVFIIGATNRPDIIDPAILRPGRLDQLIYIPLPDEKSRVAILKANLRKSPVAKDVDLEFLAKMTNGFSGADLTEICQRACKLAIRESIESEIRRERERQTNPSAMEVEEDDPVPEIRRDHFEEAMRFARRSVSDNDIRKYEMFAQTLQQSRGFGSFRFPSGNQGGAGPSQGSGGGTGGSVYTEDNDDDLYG
Sequence of Neuropeptide Y receptor type 1 (P25929 whole entry): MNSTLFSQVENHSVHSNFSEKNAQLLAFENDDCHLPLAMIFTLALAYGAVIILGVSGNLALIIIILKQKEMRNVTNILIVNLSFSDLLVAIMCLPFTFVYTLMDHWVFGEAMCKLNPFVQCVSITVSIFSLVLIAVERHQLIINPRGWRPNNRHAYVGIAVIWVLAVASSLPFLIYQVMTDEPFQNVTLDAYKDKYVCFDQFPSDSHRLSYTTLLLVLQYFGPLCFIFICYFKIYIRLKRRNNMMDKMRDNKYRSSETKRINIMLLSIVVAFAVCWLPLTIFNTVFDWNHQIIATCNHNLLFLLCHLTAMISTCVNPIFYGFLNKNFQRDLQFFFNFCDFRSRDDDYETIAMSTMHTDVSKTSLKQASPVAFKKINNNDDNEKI
Sequence of Protein-tyrosine kinase 2-beta (Q14289 whole entry): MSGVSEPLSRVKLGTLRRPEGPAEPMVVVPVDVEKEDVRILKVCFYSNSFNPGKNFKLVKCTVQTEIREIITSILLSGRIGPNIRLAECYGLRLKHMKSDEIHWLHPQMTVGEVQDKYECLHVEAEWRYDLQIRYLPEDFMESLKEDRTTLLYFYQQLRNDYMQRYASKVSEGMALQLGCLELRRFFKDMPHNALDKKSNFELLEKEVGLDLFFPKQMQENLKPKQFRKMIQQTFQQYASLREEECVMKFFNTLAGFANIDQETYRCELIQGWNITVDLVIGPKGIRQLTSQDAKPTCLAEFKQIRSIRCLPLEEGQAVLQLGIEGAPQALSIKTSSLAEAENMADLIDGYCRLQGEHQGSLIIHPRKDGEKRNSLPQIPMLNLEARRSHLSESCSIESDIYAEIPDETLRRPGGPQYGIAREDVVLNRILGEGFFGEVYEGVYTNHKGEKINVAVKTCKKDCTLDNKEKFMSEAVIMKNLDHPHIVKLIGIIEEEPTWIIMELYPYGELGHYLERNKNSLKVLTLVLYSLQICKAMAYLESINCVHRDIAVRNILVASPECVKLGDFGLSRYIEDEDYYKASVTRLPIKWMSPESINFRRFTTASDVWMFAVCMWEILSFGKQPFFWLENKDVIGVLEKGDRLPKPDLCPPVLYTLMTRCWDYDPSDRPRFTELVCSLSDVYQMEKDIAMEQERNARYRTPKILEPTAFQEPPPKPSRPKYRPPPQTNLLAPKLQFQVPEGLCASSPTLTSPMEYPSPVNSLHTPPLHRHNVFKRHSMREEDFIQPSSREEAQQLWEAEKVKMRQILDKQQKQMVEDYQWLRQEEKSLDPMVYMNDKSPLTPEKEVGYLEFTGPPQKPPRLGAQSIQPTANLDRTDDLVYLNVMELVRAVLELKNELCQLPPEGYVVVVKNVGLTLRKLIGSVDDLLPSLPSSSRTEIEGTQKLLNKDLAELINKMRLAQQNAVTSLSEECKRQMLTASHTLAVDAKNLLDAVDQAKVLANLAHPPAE
Sequence of Luciferin 4-monooxygenase (P08659 whole entry): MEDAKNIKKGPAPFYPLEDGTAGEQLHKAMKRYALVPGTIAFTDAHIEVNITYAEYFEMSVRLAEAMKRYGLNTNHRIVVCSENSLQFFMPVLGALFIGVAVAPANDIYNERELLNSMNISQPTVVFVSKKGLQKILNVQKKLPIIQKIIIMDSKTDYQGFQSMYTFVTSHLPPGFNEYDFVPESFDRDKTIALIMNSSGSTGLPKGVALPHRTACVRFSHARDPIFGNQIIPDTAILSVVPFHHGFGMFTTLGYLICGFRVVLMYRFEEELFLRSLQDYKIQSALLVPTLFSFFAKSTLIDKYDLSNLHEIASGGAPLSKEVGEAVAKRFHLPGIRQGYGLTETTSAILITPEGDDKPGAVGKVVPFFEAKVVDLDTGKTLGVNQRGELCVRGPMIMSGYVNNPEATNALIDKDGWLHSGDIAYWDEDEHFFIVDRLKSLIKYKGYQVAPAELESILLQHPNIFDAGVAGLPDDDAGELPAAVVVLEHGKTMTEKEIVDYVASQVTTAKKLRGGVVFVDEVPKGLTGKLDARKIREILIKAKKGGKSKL

In the case of `O=C1c2cccc(OCC(=O)N3CCCc4ccccc43)c2CCN1Cc1ccccc1`, the EC50 in [1], in assay [2] and in [3] was > 79.4 µM (not active) throughout.
As for `COc1ccc2c(c1)c(=O)oc1cc(OCC(=O)N3CCc4ccccc4C3)ccc12`, the IC50 at Bcl-2-like protein 10 was 29.8 µM (active); against Estrogen receptor beta [4] it was > 50 µM (not active); on Estrogen receptor beta [5], 5.58 µM (active); in assay [6] it was 2.9 µM (active).
For the molecule `CCOC(=O)C1=C(C)N=c2s/c(=C\c3ccncc3)c(=O)n2C1c1ccc2c(c1)OCO2` (configuration not stated), the EC50 in assay [7] was 11 µM (active); in assay [9], 10.2 µM (active); in assay [10], 10.5 µM (active); in [11], 16.3 µM (active). In the assay with H9c2, the IC50 is > 79 µM (inactive). For the same molecule, in [8], the CC50 is > 40 µM (active).
Regarding `CCOC(=O)/C(C#N)=C/c1sc2ccccc2c1-c1ccccc1`, the IC50 in assay [12] and in assay [13] was > 50 µM (not active) each time.
Take `COC(=O)c1ccc(CSc2nc3sc4c(c3c(=O)n2C)CCCC4)o1`: the IC50 was 6.21 µM (active) in assay [14] and 6.95 µM (active) in assay [15].
As for `COc1ccc(C(=O)/C=C/c2ccc(O)cc2)c(O)c1CC=C(C)C`, the EC50 was 2.71 µM (active) in assay [16] and 3.01 µM (active) with Streptococcus. In addition, in assay [8], the CC50 is > 40 µM (active).
Turning to `COc1cccc(CN(Cc2ccco2)C(c2ccc(F)cc2)c2nnnn2C(C)(C)C)c1` (configuration not stated), the EC50 on Ion channel NompC and on Mucolipin-3 was > 29.9 µM (not active) each time.
Consider `CN(C)Cc1ccccc1Sc1cccc2ccccc12`, for which the results for the IC50 in assay [14] and in [15] were 9.22 µM (active) and 6.03 µM (active), respectively.
Turning to `CCOC(=O)NC(CC(=O)O)c1ccc(OCC)cc1` (configuration not stated), the EC50 in [17] is recorded as > 50 µM (not active).
As to `C[C@@H]1CN(C2=C(Cl)C(=O)N(c3ccc(C(F)(F)F)cc3)C2=O)CCN1`, the IC50 in assay [18] is > 50 µM (inconclusive).
As to `Cc1cc(-c2csc(Nc3ccc(C#N)cc3)n2)c(C)n1Cc1ccccc1`, the IC50 in assay [12] and in assay [13] was > 50 µM (not active) in each case.
On to `CCOc1ccccc1CNS(=O)(=O)c1ccc2nc(O)sc2c1`, for which the EC50 in assay [17] was > 10 µM (not active).
For `O=C1c2ccccc2C(=O)C1c1ccnc2ccccc12`, the figures for the EC50 (with HT-1080; in assay [19]; in assay [22]) were > 50 µM (not active), > 67.5 µM (inactive) and 3.42 µM (active), respectively. For the same molecule, the values for the IC50 in assay [20] and in assay [21] were 4.75 µM (active) and > 67.5 µM (inactive), respectively.
Regarding `Cc1ccc2cc3c(NC(=O)CC(C)C)nn(C)c3nc2c1`, the EC50 in assay [23] is 0.476 µM (active).
For the molecule `Cc1ccc([N+](=O)[O-])c(C)[n+]1C`, in assay [24], the IC50 is listed as > 50 µM (not active).
In the case of `CCOC(=O)c1oc2ccccc2c1N`, the EC50 in [23] was 7.43 µM (active).

Values taken from ChEMBL document CHEMBL1201862, “PubChem BioAssay data set” (2004).
